Experiments:
amyloid beta (Aβ) = test: Western blotting of Aβ expression in Aβ1-42-treated primary neuronal cells; type: cell-based, ICR mice; conditions: with Aβ1-42 (5 μM), 24 hours; compared to Aβ1-42 alone; FIG. 5
Procedure: Specifically, primary neuronal cells derived from ICR mice were cultured for 6 days, and then treated with CBDA, THCA, THC, or CBN compounds while treating with Aβ1-42 (5 μM), and treated together for 24 hours. Next, Western blotting was conducted to confirm the expression levels of APP (Amyloid Precursor Protein), polymeric Aβ, and oligomeric AB in the cells.
(§1) To conduct Western blotting, tissues were homogenized in radioimmunoprecipitation assay buffer (Cell Signaling) to acquire tissue lysates. Tissue protein concentrations were determined using the Bio-Rad protein assay (Bio-Rad, Hercules, CA, USA), and Western blot analysis was conducted using 80-120 μg of protein. Next, the Western blotting samples prepared using the proteins were separated using 12% SDS-PAGE and transferred to a polyvinylidene fluoride membrane (PVDF) (Merck Millipore, Burlington, MA, USA; 0.4 μm). The PVDF was blocked with tris-buffered saline including 5% bovine serum albumin and Tween-20, and incubated with primary antibodies overnight at 4° C. After primary antibody incubation, the samples were incubated with HRP-conjugated secondary antibody (Sigma; 1:5000) for 1 hour at room temperature, and immunodetection was conducted using an enhanced chemiluminescence detection kit (GE Healthcare, Chicago, IL, USA).

[1] = system: phosphorylated tau (p-Tau); test: Western blotting of Tau/p-Tau in Aβ1-42-treated primary neuronal cells; type: cell-based, ICR mice; conditions: with Aβ1-42 (5 μM), 24 hours; compared to Aβ1-42 alone; FIG. 7
Procedure: as §1
Specifically, primary neuronal cells derived from ICR mice were cultured for 6 days, and then treated with CBDA, THCA, THC, or CBN compounds while treating with Aβ1-42 (5 μM), and treated together for 24 hours. Next, to confirm the expression levels of Tau and phosphorylated Tau (p-Tau) in the cells, Western blotting was conducted using the method disclosed in Example 4 above.

primary neuronal cells = test: Inhibition of Aβ1-42-induced neuron apoptosis (MTS cell viability); type: cell-based, ICR mice; conditions: different concentrations with Aβ1-42 (5 μM), 24 hours; compared to control treated with Aβ1-42 alone; FIG. 2
Procedure: Specifically, primary neuronal cells derived from ICR mice were seeded in 96-wells at 5×10^5 cells per well and cultured for 6 days. Afterwards, the six compounds of Example 1 above were treated at different concentrations and Aβ1-42 (5 μM) was treated to induce neuron apoptosis, and the cells were treated together for 24 hours. Afterwards, a MTS solution was added to the medium and incubated for 2 hours. Cytotoxicity (cell viability) was measured using a microplate spectrophotometer (Bio-Tek Power Wave XS, Winooski, VT, USA), and absorbance was measured at 490 nm.
Next, the neuron apoptosis inhibition efficacy for the same concentration of CBDA, CBD, THCA and THC was evaluated using the same method as above. Memantine, known as an Alzheimer's treatment, was used as a positive control group.

[2] = system: primary cortical neuron cells; test: Intracellular calcium concentration in neuronal cells (fluo-4 AM fluorescence imaging); type: cell-based; conditions: CBDA (6.25 μM), THCA (12.5 μM), THC (12.5 μM) with Aβ1-42 (5 μM), 24 hours; compared to Aβ1-42 alone; FIG. 8 and 9
Procedure: Specifically, primary cortical neuron cells were seeded in 96-wells at 5×10^5 cells per well and cultured for 6 days. […] Next, to measure the concentration of calcium ions in neuronal cells by detecting Ca^2+ using fluorescence imaging, the cells were washed with PBS and treated with 10 μM Ca^2+ indicator fluo-4 AM (Thermo) for […]. The stained sections were washed with PBS, covered with Prolong Gold Antifide Reagent (Invitrogen, Carlsbad, CA, USA) including DAPI nuclear stain, and observed using a microscope (Carl Zeiss, Oberkochen, Germany). Fluo-4 AM fluorescence signal intensity was measured using the Image J analysis program (National Institute of Health, Bethesda, […], USA).

Structure (SMILES)	expression level of AB (amyloid beta (Aβ))	phosphorylation level of p-Tau [1]	cell survival rate level (primary neuronal cells)	intracellular calcium ion concentration [2]	expression level of p-Tau [1]
CCCCCc1cc(O)c2c(c1)OC(C)(C)c1ccc(C)cc1-2 [CBN, 6,6,9-Trimethyl-3-pentyl-benzo[c]chromen-1-ol]	significantly reduced	not	significantly increased		
CCCCCc1cc(O)c2c(c1)OC(C)(C)[C@@H]1CCC(C)=C[C@@H]21 [THC, (6aR, 10aR)-delta-9-Tetrahydrocannabinol]	significantly reduced	significantly reduced	significantly increased	significantly reduced	significantly reduced
